Data on 57 compounds can be found in US7678812B2, “Aminotetralin-derived urea modulators of vanilloid VR1 receptor” (Janssen Pharmaceutica NV, priority 2002, dated 2010).

Molecules are shown by their SMILES.

In this assay the target is hVR1 receptors (Homo sapiens, UniProt Q8NER1). Put plainly: [3H] RTX binding assay, human VR1. Further details: expressed in transfected cells; host or cells: HEK293 (membrane preparation). The following applies: inhibition of [3H] RTX binding, membranes of HEK293 cells transfected with human VR1. The procedure: Compounds of the present invention were tested for their ability to inhibit the binding of [^3H] RTX to hVR1 receptors in a [^3H] RTX binding assay as previously described (Zhang, Sui-Po. Improved ligand binding assays for vanilloid receptors. PCT Int. Appl. (2002), 29 pp. CODEN: PIXXD2 WO 0233411 A1 20020425 AN 2002:315209; Grant, Elfrida R.; Dubin, Adrienne E.; Zhang, Sui-Po; Zivin, Robert A.; Zhong, Zhong Simultaneous intracellular calcium and sodium flux imaging in human vanilloid receptor 1 (VR1)-transfected human embryonic kidney cells: a method to resolve ionic dependence of VR1-mediated cell death. Journal of Pharmacology and Experimental Therapeutics (2002), 300(1), 9-17.)
Chain of hVR1 receptors (Q8NER1 whole entry): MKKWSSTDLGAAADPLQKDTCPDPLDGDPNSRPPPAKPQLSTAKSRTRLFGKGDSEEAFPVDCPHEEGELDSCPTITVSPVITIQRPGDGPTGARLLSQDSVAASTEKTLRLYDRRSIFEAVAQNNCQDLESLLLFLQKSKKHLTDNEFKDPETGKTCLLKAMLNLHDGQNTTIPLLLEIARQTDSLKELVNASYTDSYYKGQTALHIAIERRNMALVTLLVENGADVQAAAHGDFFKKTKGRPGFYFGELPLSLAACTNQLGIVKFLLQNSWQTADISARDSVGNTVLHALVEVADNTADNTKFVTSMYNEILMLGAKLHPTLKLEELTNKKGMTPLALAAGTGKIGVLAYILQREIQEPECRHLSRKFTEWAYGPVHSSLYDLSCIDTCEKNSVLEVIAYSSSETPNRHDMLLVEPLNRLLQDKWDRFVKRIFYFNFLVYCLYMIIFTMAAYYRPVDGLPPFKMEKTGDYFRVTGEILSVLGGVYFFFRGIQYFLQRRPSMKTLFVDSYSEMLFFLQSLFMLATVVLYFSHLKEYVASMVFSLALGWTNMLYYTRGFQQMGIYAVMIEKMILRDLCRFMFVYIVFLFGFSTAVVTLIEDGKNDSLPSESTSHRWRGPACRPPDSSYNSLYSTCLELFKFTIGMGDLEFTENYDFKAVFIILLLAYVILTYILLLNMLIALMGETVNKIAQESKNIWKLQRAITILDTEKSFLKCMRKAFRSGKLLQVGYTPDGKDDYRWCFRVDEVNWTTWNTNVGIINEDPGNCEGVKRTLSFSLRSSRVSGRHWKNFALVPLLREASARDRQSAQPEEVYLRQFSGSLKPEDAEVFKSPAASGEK
HEK293 cells were transfected with human VR1 vanilloid receptors and washed with Hank's Balanced Salt Solution, dissociated with cell dissociation buffer (Sigma), and then centrifuged at 1000×g for 5 min. Cell pellets were homogenized in cold 20 mM HEPES buffer, pH 7.4, containing 5.8 mM NaCl, 320 mM sucrose, 2 mM MgCl2, 0.75 CaCl2 and 5 mM KCl and centrifuged at 1000×g for 15 min. The resultant supernate was then centrifuged at 40000×g for 15 min. The pelleted membranes were kept in an −80° C. freezer.
Approximately 120 μg protein/ml from membranes were incubated with indicated concentrations of [^3H] RTX in 0.5 ml of the HEPES buffer (pH 7.4) containing 0.25 mg/mL fatty acid-free bovine serum albumin at 37° C. for 60 min. The reaction mixture was then cooled to 4° C., 0.1 mg α1-acid glycoprotein added to each sample and incubated at 4° C. for 15 min. The samples were centrifuged at 18500×g for 15 min. The tip of the microcentrifuge tube containing the pellet was cut off. Bound radioactivity was quantified by scintillation counting. Non-specific binding was tested in the presence of 200 nM unlabeled RTX.
The Ki is a dissociation constant, usually derived from enzyme kinetics or from competition with a known ligand. A low value points to a stronger hold on the target. For the compound `O=C(Nc1cccc2cnccc12)N[C@H]1CCc2cc(Br)ccc2[C@H]1Cc1ccccc1` (relative stereo) [Compound 39], the inhibition constant (Ki) came out at 0.89 nM.
As for `COc1ccc2c(c1)CC[C@@H](NC(=O)Nc1cccc3cnccc13)[C@H]2Cc1cccc(Cl)c1` (relative stereo) [Compound 44], the affinity corresponds to a Ki of 1.96 nM.
For `COc1ccc2c(c1)CC[C@@H](NC(=O)Nc1cccc3cnccc13)[C@@H]2Cc1cccc(Cl)c1` (relative stereo) [Compound 46], the Ki turned out to be 8.81 nM.
In turn, `COc1ccc2c(c1)CC[C@@H](NC(=O)Nc1cccc3cnccc13)[C@H]2Cc1ccccc1Cl` (relative stereo) [Compound 49] had an inhibitory constant (Ki) of 2.66 nM.
Take `COc1ccc2c(c1)CC[C@@H](NC(=O)Nc1cccc3cnccc13)[C@@H]2Cc1ccccc1Cl` (relative stereo) [Compound 52]: the Ki was 12.3 nM.
As for `O=C(Nc1cccc2cncc(Cl)c12)N[C@H]1CCc2cc(F)ccc2[C@H]1Cc1ccccc1` (relative stereo) [Compound 98], the figure is 2730 nM; as for `Cc1cc2c(NC(=O)NC3CCc4cc(F)ccc4C3Cc3ccccc3)cccc2cn1` (single isomer, unassigned) [Compound 81a], 1.12 nM.
In turn, `Cc1cc2c(NC(=O)NC3CCc4cc(F)ccc4C3Cc3ccccc3)cccc2cn1` (single isomer, unassigned) [Compound 81b] had an inhibition constant (Ki) of 5.25 nM.
As for `O=C(Nc1cccc2c[n+]([O-])ccc12)NC1CCc2cc(F)ccc2C1Cc1ccccc1` (single isomer, unassigned) [Compound 97], the figure is 45.4 nM; as for `O=C(Nc1cccc2c(Cl)nccc12)NC1CCc2cc(F)ccc2C1Cc1ccccc1` (single isomer, unassigned) [Compound 104], 32.3 nM.
Compound `COc1ccc2c(c1)CCC(NC(=S)NCc1ccc(O)c(OC)c1)C2Cc1ccccc1` (stereo not drawn) [Compound 3, 1-(1-Benzyl-6-methoxy-1,2,3,4-tetrahydro-naphthalen-2-yl)-3-(4-hydroxy-3-methoxy-benzyl)-thiourea] displayed an inhibition constant Ki of 98.9 nM.
As for `COc1ccc2c(c1)CCC(NC(=S)NCc1ccc(O)c(OC)c1)C2Cc1cccnc1` (stereo not drawn) [Compound 6], the figure is > 10000 nM; as for `COc1ccc2c(c1)CCC(NC(=S)NCc1ccc(O)c(OC)c1)C2Cc1c[nH]cn1` (stereo not drawn) [Compound 8], > 10000 nM; as for `COc1ccc2c(c1)CCC(NC(=O)NCc1ccc3c(c1)OCO3)C2Cc1ccccc1` (stereo not drawn) [Compound 9], > 10000 nM.
For the compound `COc1ccc2c(c1)CCC(NC(=O)NCc1ccc(OC)c(OC)c1)C2Cc1ccccc1` (stereo not drawn) [Compound 10], the affinity corresponds to a Ki of 13000 nM.
As for `COc1ccc2c(c1)CCC(NC(=O)NCCc1ccc(OC)c(OC)c1)C2Cc1ccccc1` (stereo not drawn) [Compound 13], the figure is 3600 nM; as for `COc1ccc2c(c1)CCC(NC(=S)NCc1ccc3c(c1)OCO3)C2Cc1ccccc1` (stereo not drawn) [Compound 14], > 10000 nM; as for `COc1ccc2c(c1)CCC(NC(=S)NCc1ccc(OC)c(OC)c1)C2Cc1ccccc1` (stereo not drawn) [Compound 15], 3110 nM.
The result for `COc1ccc2c(c1)CCC(NC(=O)NCc1ccc(O)c(OC)c1)C2Cc1ccccc1` (stereo not drawn) [Compound 19] reads 258 nM; that for `COCOc1ccc(CNC(=S)NC2CCc3ccccc3C2Cc2ccccc2)cc1OC` (stereo not drawn) [Compound 21], 520 nM; that for `COc1cc(CNC(=S)NC2CCc3ccccc3C2Cc2ccccc2)ccc1O` (stereo not drawn) [Compound 23], 98.2 nM.
In turn, `COc1ccc2c(c1)CCC(NC(=O)NCc1ccc(N(C)C3CCCCC3)cc1)C2Cc1ccccc1` (stereo not drawn) [Compound 25] showed an inhibition constant Ki of 70900 nM.
The compound `COc1ccc2c(c1)CCC(NC(=O)Nc1cccc3ccc(O)cc13)C2Cc1ccccc1` (stereo not drawn) [Compound 35] came in with an inhibitory constant (Ki) of 9.64 nM.
The result for `O=C(Nc1cccc2cnccc12)NC1CCc2cc(F)ccc2C1` (stereo not drawn) [Compound 37] reads 24.9 nM; that for `COc1cc2c(cc1OC)C(Cc1ccccc1)C(NC(=O)Nc1cccc3cnccc13)CC2` (stereo not drawn) [Compound 40], 29.6 nM.
The result for `O=C(Nc1cccc2cnccc12)NC1CCc2ccc(Cl)cc2C1Cc1ccccc1` (stereo not drawn) [Compound 41] reads 4.58 nM; that for `O=C(Nc1cccc2cnccc12)NC1CCc2ccccc2C1Cc1ccccc1` (stereo not drawn) [Compound 43], 3.66 nM; that for `COc1ccc2c(c1)CCC(NC(=O)Nc1cccc3cnccc13)C2Cc1cccnc1` (stereo not drawn) [Compound 45], 1540 nM.
In turn, `COc1ccc2c(c1)CCC(NC(=O)Nc1cccc3cnccc13)C2Cc1cccnc1` (stereo not drawn) [Compound 47] returned a Ki of 1030 nM.
Compound `COc1cc2c(cc1OC)C(Cc1ccccc1)C(NC(=O)Nc1cccc3cnccc13)CC2` (stereo not drawn) [Compound 48] registered an inhibition constant Ki of 19.3 nM.
In turn, `COc1ccc2c(c1)CCC(NC(=O)Nc1cccc3cnccc13)C2Cc1ccc(Cl)cc1` (stereo not drawn) [Compound 50] returned an inhibitory constant (Ki) of 1.8 nM.
On to `COc1ccc2c(c1)CCC(NC(=O)Nc1cccc3cnccc13)C2` (stereo not drawn) [Compound 51], for which the Ki was found to be 24 nM.
`COc1ccc2c(c1)CCC(NC(=O)Nc1cccc3cnccc13)C2Cc1ccccc1C(F)(F)F` (stereo not drawn) [Compound 53] gave a Ki of 0.48 nM.
`COc1ccc2c(c1)CCC(NC(=O)Nc1cccc3cnccc13)C2Cc1cccc(C(F)(F)F)c1` (stereo not drawn) [Compound 54] had an inhibition constant Ki of 2.04 nM.
Consider `COc1ccc2c(c1)CCC(NC(=O)Nc1cccc3cnccc13)C2Cc1ccc(C(F)(F)F)cc1` (stereo not drawn) [Compound 55], for which the affinity, expressed as Ki, was 1.55 nM.
In turn, `O=C(Nc1cccc2cnccc12)NC1CCc2cc(O)ccc2C1Cc1ccccc1` (stereo not drawn) [Compound 56] gave a Ki of 277 nM.
`O=C(Nc1cccc2cnccc12)NC1CCc2cc(Br)ccc2C1` (stereo not drawn) [Compound 58]: the inhibition constant Ki was 2.62 nM.
`O=C(Nc1cccc2cnccc12)NC1CCc2cc(Cl)ccc2C1` (stereo not drawn) [Compound 59] had an inhibition constant Ki of 2.6 nM.
In turn, `O=C(NCc1cccc2cnccc12)NC1CCc2cc(F)ccc2C1Cc1ccccc1` (stereo not drawn) [Compound 60, 1-(1-Benzyl-6-fluoro-1,2,3,4-tetrahydronaphthalene-2-yl)-3-isoquinolin-5-ylmethyl-urea] came in with an inhibition constant Ki of 4.99 nM.
Consider `O=C(Nc1cccc2cnccc12)NC1CCc2ccc(Cl)cc2C1` (stereo not drawn) [Compound 61], for which affinity was put at a Ki of 3.42 nM.
The result for `O=C(Nc1cccc2cnccc12)NC1CCc2cccc(Cl)c2C1Cc1ccccc1` (stereo not drawn) [Compound 62] reads 7.59 nM; that for `COc1ccc2c(c1)CCC(NC(=O)Nc1cccc3cnccc13)C2Cc1ccc(C#N)cc1` (stereo not drawn) [Compound 63], 16.5 nM; that for `COc1ccc2c(c1)CCC(NC(=O)Nc1cccc3cnccc13)C2Cc1ccc(Br)cc1` (stereo not drawn) [Compound 64], 1.28 nM.
Consider `O=C(Nc1cccc2cnccc12)NC1CCc2cc(F)c(F)cc2C1Cc1ccccc1` (stereo not drawn) [Compound 66], for which the Ki came out at 1.82 nM.
As for `O=C(Nc1cccc2ccc(O)cc12)NC1CCc2cc(F)ccc2C1Cc1ccccc1` (stereo not drawn) [Compound 67, 1-(1-Benzyl-6-fluoro-1,2,3,4-tetrahydronaphthalene-2-yl)-3-(7-hydroxy-naphthalen-1-yl)-urea], the figure is 1.44 nM; as for `C=CCC1c2ccc(F)cc2CCC1NC(=O)Nc1cccc2cnccc12` (stereo not drawn) [Compound 69], 2.19 nM.
For `COc1ccc(CC2c3ccc(OC)cc3CCC2NC(=O)Nc2cccc3cnccc23)cc1` (stereo not drawn) [Compound 70], the inhibition constant Ki is 5.55 nM.
As for `O=C(Nc1cccc2cnccc12)NC1CCc2cc(F)ccc2C1CC1CC1` (stereo not drawn) [Compound 71, 1-(1-cyclopropylmethyl-6-fluoro-1,2,3,4-tetrahydronaphthalene-2-yl)-3-isoquinolin-5-yl-urea], the figure is 0.84 nM.
`COc1ccc(CC2c3ccc(OC)cc3CCC2NC(=O)Nc2cccc3cnccc23)cc1` (stereo not drawn) [Compound 72]: the Ki is 7.52 nM.
In turn, `COc1ccc2c(c1)CCC(NC(=O)Nc1cccc3cnccc13)C2Cc1ccccc1OC` (stereo not drawn) [Compound 73] displayed a Ki of 53.4 nM.
The result for `COc1ccc2c(c1)CCC(NC(=O)Nc1cccc3cnccc13)C2Cc1ccc(OCc2ccccc2)cc1` (stereo not drawn) [Compound 74] reads 11.3 nM; that for `O=C(Nc1cccc2cnccc12)NC1CCc2cc(F)ccc2C1Cc1cccs1` (stereo not drawn) [Compound 76], 3.81 nM.
As for `COc1ccc2c(c1)CCC(NC(=O)Nc1cccc3cnccc13)C2Cc1c(F)cccc1F` (stereo not drawn) [Compound 77], the Ki was determined as 6.26 nM.
The result for `O=C(Nc1cccc2cnccc12)NC1CCc2cc(Cl)ccc2C1Cc1ccccc1` (stereo not drawn) [Compound 86] reads 1.7 nM; that for `O=C(Nc1cccc2cncc(Cl)c12)NC1CCc2cc(F)ccc2C1Cc1ccccc1` (stereo not drawn) [Compound 99], 2700 nM.
For `O=C(Nc1cccc2c(Cl)nc(Cl)cc12)NC1CCc2cc(F)ccc2C1Cc1ccccc1` (stereo not drawn) [Compound 108], the inhibition constant (Ki) worked out at 186 nM.
As to `O=C(Nc1cccc2c(Cl)nc(Cl)cc12)NC1CCc2cc(F)ccc2C1Cc1ccccc1` (stereo not drawn) [Compound 109], affinity was put at a Ki of 29.2 nM.
